One assay deals with full-length PDK1 (Homo sapiens (Human), UniProt O15530). Briefly: PDK phosphorylation of AKT and PKC-PIFtide in presence of PIP3 vesicles. Format: biochemical. Particulars: substrates PKC-PIFtide vs AKT2. The procedure:
PDK phosphorylation of two different substrates, AKT and PKC-PIFtide, was measured in presence of pre-formed phophoinositol lipid PIP3 vesicles. 5 nM full-length PDK1 and was incubated with 100 nM substrate (unphosphorylated, full-length AKT2 or PKC-PIFtide, Invitrogen cat#P2925) in presence of test compound or DMSO at room temperature for 3 hours. Final buffer conditions were 10 mM Tris pH 7.5 buffer containing 10 mM MgCl2, 0.002% Triton X-100, 1 mM DTT, 0.2 mg/ml BSA, 10 uM PtdIns(3,4,5)P3 (Matreya, Inc), 100 uM DOPC:DOPS (Avanti Polar Lipids), and 0.5 uCi γ^33P-ATP (3000 Ci/mmol, Perkin-Elmer.)
Kinase reactions were stopped with addition of 50 uM non-labelled ATP and 5 mM EDTA, then acidified with 0.5% final concentration phosphoric acid. Labeled proteins were collected in Whatman P81 filter plates and washed with three 150 ul volumes of 0.5% phosphoric acid.
Lipid vesicles were pre-formed as follows. 15 mg (3 ampules) DOPC:DOPS was resuspended in 898 ul 10 mM HEPES pH 7.4. 1 mg PIP3 was resuspended in 1000 ul 10 mM HEPES pH 7.4. 964 ul of PIP3 was mixed with 800 ul DOPC:DOPS and diluted with 18.2 ml 10 mM HEPES pH 7.4 and mixed by vortexing. The lipid mixture was subjected to 5 cycles of freeze/thaw using liquid nitrogen and a 50° C. water bath. Aliquot of lipids were flash frozen and stored at −20° C.

For the next assay, the system named is Phospho-T308 Akt. The assay can be described thus: Phospho-T308 Akt detection using immunoblot (western blot) in PC-3 cells. Conditions: 2 μM or 5 μM, concentration not given. Format: cell-based. In a few lines: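 PC-3 prostate cells, cultured overnight in F12K plus 10% FBS, were treated for 2 h at 37 °C in serum-free medium with compound A (1000× DMSO dilutions). Lysate protein was immunoblotted with anti-phospho-Akt Thr308. Bands were quantified by background-subtracted densitometry, giving EC50 by non-linear regression and percent decrease at 2 μM and 5 μM.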
In general terms: In western blotting, separated proteins are transferred to a membrane and probed.

Sequence of full-length PDK1 (O15530 whole entry): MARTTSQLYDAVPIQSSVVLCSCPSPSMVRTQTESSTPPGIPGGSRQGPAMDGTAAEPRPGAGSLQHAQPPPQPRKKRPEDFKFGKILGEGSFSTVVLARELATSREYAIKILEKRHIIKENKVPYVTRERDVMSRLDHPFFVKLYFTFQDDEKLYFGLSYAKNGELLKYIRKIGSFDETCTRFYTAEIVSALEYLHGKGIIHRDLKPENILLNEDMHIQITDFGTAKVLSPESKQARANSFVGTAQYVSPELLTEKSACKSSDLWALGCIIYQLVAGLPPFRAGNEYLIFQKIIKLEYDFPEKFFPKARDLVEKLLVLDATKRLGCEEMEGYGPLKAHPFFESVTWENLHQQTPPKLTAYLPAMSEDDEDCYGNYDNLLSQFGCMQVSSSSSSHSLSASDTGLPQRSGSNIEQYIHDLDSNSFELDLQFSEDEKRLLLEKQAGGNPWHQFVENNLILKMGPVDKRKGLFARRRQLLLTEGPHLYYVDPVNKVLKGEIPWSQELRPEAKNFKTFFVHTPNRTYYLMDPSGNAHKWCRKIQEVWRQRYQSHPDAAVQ

In the case of `O=C(NCc1nc(-c2c[nH]c3ncccc23)cs1)c1cccn(Cc2ccc(F)c(F)c2)c1=O` [Cpd 112], the “Ratio of PIP3 IC50 with PKCtide to PIP3 IC50 with AKT” value at full-length PDK1 came out at 71.9. Also, in the assay with Phospho-T308 Akt, the “Percent Inhibition of phospho-Akt (308) By Western” value was “d (inhibition of less than 25%)”.

The record behind these values is US9873693B2 (Sunesis Pharmaceuticals, Inc., priority 2006, dated 2018).
